Assay [1] has as its system non-muscle actin. In words: Actin Polymerization Inhibition Assay (Actin Polymerization Biochem Kit, pyrene actin fluorescence). The class given is biochemical. The note with it: inhibition of actin polymerization (pyrene-labeled actin fluorescence increase) at standard test concentration of 10 uM. As to the method: The quantative effects of the test compounds on the kinetics of actin polymerization were determined using a non-muscle actin polymerization kit, Actin Polymerization Biochem Kit, according to the instructions of the manufacturer (Cytoskeleton Inc; Denver, Colo.). This assay evaluates the fluorescence intensity of pyrene actin, which is greater for polymeric actin than for monomeric actin. The ability of the test compounds to inhibit actin assembly was determined by measuring their ability to inhibit this increase in the fluorescence intensity of the pyrene-labeled actin. Results were expressed as the percent inhibition measured at a standard test concentration of 10 uM.

For assay [2], the system named is NIH/3T3 cells. As to the kind of experiment: NIH/3T3 Cell Morphology Assay (phalloidin staining, degree of actin disruption). The class given is cell-based. The note with it: 30 minutes at 37° C., 10 nM to 100 uM tested, TRITC-phalloidin imaging. As to the method:
NIH/3T3 cells were grown in DMEM-H containing glutamine and 10% Colorado Calf Serum. Cells were passaged regularly prior to reaching confluence. Eighteen to 24 hours prior to experimentation, the cells were plated onto Poly-L-Lysine-coated glass coverslips. On the day of experimentation, the cell culture medium was removed and was replaced with medium containing from 10 nM to 100 uM of the test compound, and the cells were incubated for 30 minutes at 37° C. The culture medium was then removed and the cells were washed with warmed PBS and fixed for 10 minutes with warmed 4% paraformaldehyde. The cells were permeabilized with 0.5% Triton-X, stained with TRITC-conjugated phalloidin and imaged using a Nikon Eclipse E600 epifluorescent microscope to determine the degree of actin disruption. Results were expressed as the concentration at which complete disruption of the actin cytoskeleton was observed.

For the compound `C=CCCC[C@@H]1C[C@@H](OC(=O)/C=C(/C)CCC=C)C[C@](O)([C@@H]2CSC(=O)N2)O1` [Compound 1, (Z)-((2R,4R,6R)-2-Hydroxy-2-((R)-2-oxothiazolidin-4-yl)-6-(pent-4-enyl)-tetrahydro-2H-pyran-4-yl) 3-Methylhepta-2,6-dienoate], in assay [1], the “Percent inhibition at 10 uM” value is given as 52.3%.
The same measure, in the same setting: next, `C=CCCC[C@@H]1C[C@@H](NC(=O)/C=C(/C)CCC=C)C[C@](O)([C@@H]2CSC(=O)N2)O1` [Compound 1a, (Z)-N-((2R,4R,6R)-2-Hydroxy-2-((R)-2-oxothiazolidin-4-yl)-6-(pent-4-enyl)-tetrahydro-2H-pyran-4-yl)-3-methylhepta-2,6-dienamide]: 32.4%.
Still for that read-out and setting: as for `C=CCCC[C@@H]1C[C@@H](OC(=O)c2ccccc2)C[C@](O)([C@@H]2CSC(=O)N2)O1` [Compound 4, (2R,4R,6R)-2-Hydroxy-2-((R)-2-oxothiazolidin-4-yl)-6-(pent-4-enyl)-tetrahydro-2H-pyran-4-yl Benzoate], the figure is 52.0%; as for `C=CCCC[C@@H]1C[C@@H](OC(=O)c2ccc(OC)cc2)C[C@](O)([C@@H]2CSC(=O)N2)O1` [Compound 4a, (2R,4R,6R)-2-Hydroxy-2-((R)-2-oxothiazolidin-4-yl)-6-(pent-4-enyl)-tetrahydro-2H-pyran-4-yl 4-Methoxybenzoate], 42.2%; as for `C=CCCC[C@@H]1C[C@@H](OC(=O)c2ccc(S(C)(=O)=O)cc2)C[C@](O)([C@@H]2CSC(=O)N2)O1` [Compound 4b, (2R,4R,6R)-2-Hydroxy-2-((R)-2-oxothiazolidin-4-yl)-6-(pent-4-enyl)-tetrahydro-2H-pyran-4-yl 4-(Methylsulfonyl)benzoate], 45.6%.
For the compound `C/C1=C/C(=O)O[C@@H]2C[C@@H](CCC/C=C\CC1)O[C@@](O)([C@@H]1CSC(=O)N1)C2` [Compound 8, (R)-4-((1R,4Z,8Z,13R,15R)-15-Hydroxy-5-methyl-3-oxo-2,14-dioxa-bicyclo[11.3.1]heptadeca-4,8-dien-15-yl)thiazolidin-2-one], the “Concentration giving complete actin disruption” value in assay [2] was found to be 5 µM. Further, the “Percent inhibition at 10 uM” value in assay [1] is given as 69.9%.
In the case of `C/C1=C/C(=O)O[C@@H]2C[C@@H](CCC/C=C/CC1)O[C@@](O)([C@@H]1CSC(=O)N1)C2` [Compound 8a, (R)-4-((1R,4Z,8E,13R,15R)-15-Hydroxy-5-methyl-3-oxo-2,14-dioxa-bicyclo[11.3.1]heptadeca-4,8-dien-15-yl)thiazolidin-2-one], in assay [2], the “Concentration giving complete actin disruption” value amounted to 15 µM. The “Percent inhibition at 10 uM” value in assay [1] turned out to be 67.2%.
On to `C/C1=C/C(=O)O[C@@H]2C[C@@H](CC[C@H](C)/C=C/CC1)O[C@@](O)([C@@H]1CSC(=O)N1)C2` [Compound 8b, (R)-4-((1R,4Z,8E,10S,13R,15R)-15-Hydroxy-5,10-dimethyl-3-oxo-2,14-dioxa-bicyclo[11.3.1]heptadeca-4,8-dien-15-yl)thiazolidin-2-one], for which the “Concentration giving complete actin disruption” value in assay [2] came out at 25 µM. Besides, the “Percent inhibition at 10 uM” value in assay [1] came to 61.7%.
Turning to `C/C1=C/C(=O)N[C@@H]2C[C@@H](CCC/C=C\CC1)O[C@@](O)([C@@H]1CSC(=O)N1)C2` [Compound 8c, (1R,4Z,8Z,13R,15R)-15-Hydroxy-5-methyl-15-((R)-2-oxothiazolidin-4-yl)-14-oxa-2-aza-bicyclo[11.3.1]heptadeca-4,8-dien-3-one], the “Percent inhibition at 10 uM” value in assay [1] is 44.9%.
Still for that read-out and setting: as for `C/C1=C/C(=O)O[C@@H]2C[C@@H](CCCCCCC1)O[C@@](O)([C@@H]1CSC(=O)N1)C2` [Compound 10, (R)-4-((1R,13R,15R,Z)-15-Hydroxy-5-methyl-3-oxo-2,14-dioxa-bicyclo[11.3.1]heptadec-4-en-15-yl)thiazolidin-2-one], the figure is 44.1%; as for `O=C1CCCC/C=C\CCC[C@@H]2C[C@H](C[C@](O)([C@@H]3CSC(=O)N3)O2)O1` [Compound 10a, (R)-4-((1R,13R,15R,Z)-15-Hydroxy-3-oxo-2,14-dioxa-bicyclo[11.3.1]heptadec-8-en-15-yl)thiazolidin-2-one], 14.0%; as for `O=C1CCCCCCCCC[C@@H]2C[C@H](C[C@](O)([C@@H]3CSC(=O)N3)O2)O1` [Compound 10b, (R)-4-((1R,13R,15R)-15-Hydroxy-3-oxo-2,14-dioxa-bicyclo[11.3.1]heptadecan-15-yl)thiazolidin-2-one], 21.8%.
Take `O=C1CCCCC/C=C/CCC[C@@H]2C[C@H](C[C@](O)([C@@H]3CSC(=O)N3)O2)O1` [Compound 10c, (R)-4-((1R,14R,16R,E)-16-Hydroxy-3-oxo-2,15-dioxa-bicyclo[12.3.1]octadec-9-en-16-yl)thiazolidin-2-one]: the “Percent inhibition at 10 uM” value in assay [1] is reported as 21.7%.
Still for that read-out and setting: as for `O=C1CCCCCCCCCC[C@@H]2C[C@H](C[C@](O)([C@@H]3CSC(=O)N3)O2)O1` [Compound 10d, (R)-4-((1R,14R,16R)-16-Hydroxy-3-oxo-2,15-dioxa-bicyclo[12.3.1]octadecan-16-yl)thiazolidin-2-one], the figure is 10.4%.
